Experimental data: US20250011881A1, “MYC-HSF1 DUAL AMPLIFICATION AS A BIOMARKER FOR CANCER TREATMENT” (The Trustees of Indiana University, priority 2023, published 2025)
Values joined by “and” are separate entries in the source; they are usually repeats but may differ in a detail not shown here. Equal values may be shown once. Where a name gives a salt, the structure may show the parent alone. Read-outs that look alike come from different tables or passages of the source.

System: ovarian cancer cells with (OVCAR8, OVCAR4) or without (OVSAHO, CAOV3) MYC-HSF1 amplification
Assay: Epigenetic inhibitor drug screen, cell viability (Cell Titer Blue)
Format: cell-based
[1] = 10 uM, 48 hrs, average relative cell viability (vs 1% DMSO) of non-amplified cells (OVSAHO, CAOV3) minus that of MYC-HSF1 amplified cells (OVCAR8, OVCAR4), positive = greater response in amplified cells
[2] = 10 uM, 48 hrs, average relative cell viability (vs 1% DMSO) of non-amplified cells (OVSAHO, CAOV3) minus that of MYC-HSF1 amplified cells (OVCAR8, OVCAR4), positive = greater response in amplified cells, 10 µM

Row | SMILES | Non Amp - AMP (POC) 10 uM [1] [POC] | further results
1 | O=C(c1ccc(/C=C/c2n[nH]c3ccccc23)cc1)N1CCNCC1 [KW 2449] | 6.231 | –
2 | COc1ccc(S(=O)(=O)ON=C2C=C(C)C(=O)C(C)=C2)cc1 [L002] | −39.83 | –
3 | C[S+]([O-])CCCCN=C=S [L-Sulforaphane] | – | Non Amp - AMP (POC) 10 uM [2]: −5.74 POC
4 | O=C(O)CC[C@H](O)C(=O)O [L-a-Hydroxyglutaric Acid] | −7.873 | –
5 | O=C(/C=C/c1ccc(CN(CCO)CCc2c[nH]c3ccccc23)cc1)NO [LAQ824, Dacinostat] | – | Non Amp - AMP (POC) 10 uM [2]: 43.86 POC; Non Amp - AMP (POC) 10 uM (10 uM, 48 hrs, average relative cell viability (vs 1% DMSO) of non-amplified cells (OVSAHO, CAOV3) minus that of MYC-HSF1 amplified cells (OVCAR8, OVCAR4), positive = greater response in amplified cells, listed as LAQ824 (NVP-LAQ824, Dacinostat), 10 µM): 28.82 POC
6 | C/C(O)=C(\C#N)C(=O)Nc1cc(Br)ccc1Br [LFM-A13] | – | Non Amp - AMP (POC) 10 uM: 5.442 POC
7 | Cc1cn(CCN2CCN(c3ccccc3-c3cc(C#N)cc(C(=O)NCCCN4CCCC4)c3)CC2)c2ccccc12 [LLY507] | −14.82 | –
8 | Cc1cc(C)cc(C(=O)NOCCCCCC(=O)NO)c1 [LMK 235] | – | Non Amp - AMP (POC) 10 uM [2]: 44.96 POC and 34.77 POC
9 | Cc1cc(Nc2cc(CN3CCOCC3)c3nc(C)c(Cc4ccc(Cl)cc4F)n3n2)n[nH]1 [LY2784544] | −1.068 | –
10 | CC(C)OC(=O)CCC/C=C\C[C@@H]1[C@@H](CC[C@@H](O)CCc2ccccc2)[C@H](O)C[C@@H]1O [Latanoprost] | −8.842 | –
11 | Nc1nc(OCc2cc(Br)cs2)c2[nH]cnc2n1 [Lomeguatrib] | 9.851 | –
12 | CN(C)c1ccc(C(=O)NCCCCCCC(=O)NO)cc1 [M344] | 22.65 | –
13 | Cn1c(/C=C/C(=O)NO)ccc1/C=C/C(=O)c1cccc(F)c1 [MC 1568] | – | Non Amp - AMP (POC) 10 uM [2]: −4.947 POC; Non Amp - AMP (POC) 10 uM (10 uM, 48 hrs, average relative cell viability (vs 1% DMSO) of non-amplified cells (OVSAHO, CAOV3) minus that of MYC-HSF1 amplified cells (OVCAR8, OVCAR4), positive = greater response in amplified cells, listed as MC1568, 10 µM): −17.78 POC
14 | CCC1C/C(=C\c2cccnc2)C(=O)/C(=C/c2cccnc2)C1 (centres unmarked) [MCB-613] | −5.355 | –
15 | C[C@H](NC(=O)CCc1nc2ccccc2c(=O)[nH]1)c1ccccc1 [ME0328] | 15.81 | –
16 | CCCCCCCc1ccc(CCc2cccc(O)c2C(=O)O)cc1 [MG 149] | −0.4614 | –
17 | CCCc1cc2c(N3CCN(C4=NCC(C)(C)S4)CC3)ncnc2s1 [MI-2 (hydrochloride)] | – | Non Amp - AMP (POC) 10 uM [2]: 6.017 POC
18 | CCCc1cc2c(N3CCN(C4=NCC(C)(C)S4)CC3)ncnc2s1 [MI-2] | – | Non Amp - AMP (POC) 10 uM [2]: 8.542 POC
19 | NC(=O)c1cccc2cn(-c3ccc([C@@H]4CCCNC4)cc3)nc12 [MK-4827] | – | Non Amp - AMP (POC) 10 uM: −0.7556 POC
20 | O=C(O)[C@]1(Cc2cccc(Nc3nccs3)n2)CC[C@@H](Oc2cccc(Cl)c2F)CC1 [MK-5108 (VX-689)] | 0.08992 | –

Row | SMILES | Non Amp - AMP (POC) 10 uM [1] [POC] | further results
21 | O=C(c1cccc(Cl)c1F)N1CCN(Cc2cccc(Nc3nccs3)n2)CC1 [MK-8745] | 10.66 | –
22 | CN(C)CCCNC(=O)c1ccc(-c2cc(O)c3ncccc3c2)cc1 [ML-324] | – | Non Amp - AMP (POC) 10 uM [2]: 7.484 POC; Non Amp - AMP (POC) 10 uM (10 uM, 48 hrs, average relative cell viability (vs 1% DMSO) of non-amplified cells (OVSAHO, CAOV3) minus that of MYC-HSF1 amplified cells (OVCAR8, OVCAR4), positive = greater response in amplified cells, listed as ML324, 10 µM): 4.315 POC
23 | O=C(O)c1ccc(Nc2ncc3c(n2)-c2ccc(Cl)cc2C(c2c(F)cccc2F)=NC3)cc1 [MLN8054] | −12.87 | –
24 | COc1cc(Nc2ncc3c(n2)-c2ccc(Cl)cc2C(c2c(F)cccc2OC)=NC3)ccc1C(=O)O [MLN8237 (Alisertib), Alisertib] | −25.51 | –
25 | CCC(CC)(NC(=O)C(C)C)C(=O)N[C@@H](CCCN=C(N)N)C(=O)NC1(C(=O)NC(c2ccc(F)cc2)c2ccc(F)cc2)CCCC1 [MM-102] | – | Non Amp - AMP (POC) 10 uM [2]: 10.41 POC and 6.837 POC
26 | CC(C)c1ccc(-c2cc(=O)c3ccccc3o2)cc1 [MN 64] | −7.835 | –
27 | CC(C)Oc1ccc(-c2c[nH]cc2CN(C)CCN)cc1 [MS023 (hydrochloride)] | – | Non Amp - AMP (POC) 10 uM [2]: 6.531 POC
28 | CC(C)Oc1ccc(-c2c[nH]cc2CN(C)CCN)cc1 [MS023] | – | Non Amp - AMP (POC) 10 uM [2]: −0.6323 POC
29 | CNCCN1CCC(OCc2ccccc2)CC1.Cl.Cl [MS049 (hydrochloride)] | −3.654 | –
30 | Cc1cc(/N=N/c2ccc(S(=O)(=O)Nc3ccccn3)cc2)c(N)cc1O [MS436] | 8.852 | –
31 | COC(=O)/C=C/C(=O)N(O)CCCCNCc1ccc(COC(=O)Nc2cccc3ccccc23)cc1 [Methylstat (hydrate), Methylstat] | −5.079 | –
32 | CO[C@@H]1[C@H](N(C)C(=O)c2ccccc2)C[C@H]2O[C@]1(C)n1c3ccccc3c3c4c(c5c6ccccc6n2c5c31)C(=O)NC4 [Midostaurin (PKC412), Midostaurin] | −9.891 | –
33 | N=C1NC(=O)/C(=C/c2ccc(O)cc2)S1 [Mirin] | – | Non Amp - AMP (POC) 10 uM: 4.24 POC
34 | CO[C@@]12[C@H](COC(N)=O)C3=C(C(=O)C(C)=C(N)C3=O)N1C[C@@H]1N[C@@H]12 [Mitomycin C] | – | Non Amp - AMP (POC) 10 uM: 14.14 POC
35 | O=C1c2c(O)ccc(O)c2C(=O)c2c(NCCNCCO)ccc(NCCNCCO)c21 [Mitoxantrone HCl] | 11.28 | –
36 | Nc1ccccc1NC(=O)c1ccc(CNc2nccc(-c3cccnc3)n2)cc1 [Mocetinostat] | – | Non Amp - AMP (POC) 10 uM [2]: 49.31 POC; Non Amp - AMP (POC) 10 uM (10 uM, 48 hrs, average relative cell viability (vs 1% DMSO) of non-amplified cells (OVSAHO, CAOV3) minus that of MYC-HSF1 amplified cells (OVCAR8, OVCAR4), positive = greater response in amplified cells, listed as Mocetinostat (MGCD0103, MG0103), 10 µM): 36.88 POC
37 | O=c1c(-n2ccnn2)c[nH]n1-c1cc(N2CCOCC2)ncn1 [Molidustat (BAY85-3934), Molidustat] | −4.287 | –
38 | C[C@@H]1O[C@@H](Oc2c(-c3cc(O)c(O)c(O)c3)oc3cc(O)cc(O)c3c2=O)[C@H](O)[C@H](O)[C@H]1O [Myricetrin] | −0.2723 | –
39 | O=C(O)CNC(=O)C(=O)O [N-Oxalylglycine] | 14.36 | –
40 | CC(C)C(=O)SCCCCCCC(=O)Nc1nc(-c2ccccc2)cs1 [NCH-51] | – | Non Amp - AMP (POC) 10 uM [2]: 27.52 POC; Non Amp - AMP (POC) 10 uM (10 uM, 48 hrs, average relative cell viability (vs 1% DMSO) of non-amplified cells (OVSAHO, CAOV3) minus that of MYC-HSF1 amplified cells (OVCAR8, OVCAR4), positive = greater response in amplified cells, listed as NCH 51, 10 µM): 9.119 POC

Row | SMILES | Non Amp - AMP (POC) 10 uM [1] [POC] | further results
41 | COc1cc(C#N)ccc1S(=O)(=O)Nc1ccc2c(c1)cc(C)c(=O)n2C [NI-57] | 11.2 | –
42 | O=[N+]([O-])c1ccc(Sc2cccc[n+]2[O-])c2nonc12 [NSC228155] | 4.767 | –
43 | O=Nc1ccc(O)c2ncccc12 [NSC 3852] | – | Non Amp - AMP (POC) 10 uM [2]: 27.71 POC
44 | O=S(=O)(O)c1ccc2cc(N=Nc3cc(S(=O)(=O)O)c4cccnc4c3O)ccc2c1 [NSC 87877] | 8.877 | –
45 | Fc1cc(-c2cccc3ncc(-c4cnn(C5CCNCC5)c4)nc23)cc(F)c1CN1CCOCC1 [NVP-BSK805 2HCl] | – | Non Amp - AMP (POC) 10 uM [2]: −12.67 POC
46 | Fc1cc(-c2cccc3ncc(-c4cnn(C5CCNCC5)c4)nc23)cc(F)c1CN1CCOCC1 [NVP-BSK805] | – | Non Amp - AMP (POC) 10 uM [2]: −1.371 POC
47 | C[C@@H]1O[C@@H](CC(=O)O)CC2=C1C(=O)c1c(O)cccc1C2=O [Nanaomycin A] | 2.594 | –
48 | [NH2][Pt]1([NH2])[O]CC(=O)[O]1 [Nedaplatin] | – | Non Amp - AMP (POC) 10 uM: −10.66 POC
49 | CCCCN(Cc1ccc(C(=O)NO)cc1)C(=O)Nc1ccccc1 [Nexturastat A] | 23.67 | –
50 | NC(=O)c1cccnc1 [Nicotinamide] | −2.471 | –
51 | CN1CCN(c2ccc(-c3cccc(CN4CCOCC4)c3)cc2NC(=O)c2c[nH]c(=O)cc2C(F)(F)F)CC1 [OICR-9429] | 12.58 | –
52 | Cc1sc2c(c1C)C(c1ccc(Cl)cc1)=N[C@@H](CC(=O)Nc1ccc(O)cc1)c1nnc(C)n1-2 [OTX015] | – | Non Amp - AMP (POC) 10 uM [2]: 15.65 POC; Non Amp - AMP (POC) 10 uM (10 uM, 48 hrs, average relative cell viability (vs 1% DMSO) of non-amplified cells (OVSAHO, CAOV3) minus that of MYC-HSF1 amplified cells (OVCAR8, OVCAR4), positive = greater response in amplified cells, listed as OTX-015, 10 µM): 2.251 POC
53 | CCCCCCCCOC(=O)C(O)CCC(=O)O (centres unmarked) [Octyl-a-hydroxyglutarate] | 0.5587 | –
54 | CC1COc2c(N3CCN(C)CC3)c(F)cc3c(=O)c(C(=O)O)cn1c23 (centres unmarked) [Ofloxacin] | 5.913 | –
55 | O=C(c1cc(Cc2n[nH]c(=O)c3ccccc23)ccc1F)N1CCN(C(=O)C2CC2)CC1 [Olaparib (AZD2281, Ku-0059436), Olaparib] | 3.527 | –
56 | Nc1ccccc1NC(=O)CCCCCC(=O)Nc1ccccc1 [PAOA] | 29.57 | –
57 | Cc1ccc(-n2sc3ccccc3c2=O)cc1 [PBIT] | – | Non Amp - AMP (POC) 10 uM: −46.19 POC
58 | CN(C)Cc1c(C(=O)NCCOc2ccc(C(=O)NO)cc2)oc2ccccc12 [PCI 24781] | – | Non Amp - AMP (POC) 10 uM [2]: 42.57 POC; Non Amp - AMP (POC) 10 uM (10 uM, 48 hrs, average relative cell viability (vs 1% DMSO) of non-amplified cells (OVSAHO, CAOV3) minus that of MYC-HSF1 amplified cells (OVCAR8, OVCAR4), positive = greater response in amplified cells, listed as PCI-24781 (CRA-024781), 10 µM): 28.7 POC
59 | COc1ccc(Cn2ccc3ccc(C(=O)NO)cc32)cc1 [PCI 34051] | – | Non Amp - AMP (POC) 10 uM (10 µM): −4.834 POC; Non Amp - AMP (POC) 10 uM (listed as PCI-34051, 10 µM): −22.68 POC
60 | CCCOc1ccc(CCc2nc3cc(-c4c(C)noc4C)ccc3n2CCN2CCOCC2)cc1.Cl [PF-CBP1 hydrochloride] | 9.953 | –
